Assay results: patent publication US12257260B2, “Pharmaceutical use of anemoside B4 against acute gouty arthritis” (priority 2018, dated 2025)

Columns and labels:
[1] = tested on: rats with acute gouty arthritis induced by MSU; experiment: Example 1: effect of anemoside B4 on sodium urate (MSU)-induced acute gouty arthritis in rats, joint swelling; assay type: in vivo, SD rats; set-up: key to Swelling degree 2 h after modelling / Swelling degree 6 h after modelling / Swelling degree 8 h after modelling / Swelling degree 12 h after modelling / Swelling degree 24 h after modelling: swelling = joint volume after modeling − joint volume before modeling
Protocol: 2.1 Preparation of sodium urate (MSU) crystals and suspension: 5 ml of 1 mol/L NaOH solution and 800 mg sodium urate were added to 155 ml depyrogenated sterile water for injection and heated to boiling. Sodium urate was completely dissolved and then cooled down naturally under stirring. After that, 1 mol/L HCl was dropped to pH 7.0, then the solution became milky white, and was immediately centrifuged at 3000 r/min for 2 min. The crystals were collected, dried in an oven at 60° C., placed in an EP tube, and stored at 4° C. Prior to use, MSU crystals were autoclaved at 121° C. for 30 min, and dispersed in PBS to make the required concentration, i.e. to obtain a suspension of sodium urate (MSU). The film preparation of the suspension was performed, and the long fusiform crystals can be seen under the optical microscope.
2.2 Grouping, administration, and model establishment: 60 rats were randomly divided into 6 groups according to their body weights, 10 rats for each group: (1) model group; (2) colchicine group (0.3 mg/kg); (3) B4 subcutaneous injection group (5 mg/kg*2); (4) B4 intravenous injection group (5 mg/kg*2); (5) B4 intramuscular injection high-dose group (5 mg/kg*2); (6) B4 intramuscular injection low-dose group (2.5 mg/kg*2); normal group (5 rats). The normal group and the model group were injected with the same volume of normal saline, and each of B4 groups was given corresponding drugs by the corresponding route of administration for 3 days, twice a day, with an interval of 4 hours between two times.
Modeling method: on the day of modeling, the model was initially established 1 h after administrating in the drug groups. Among them: • (1) Model group: each rat was injected with 40 mg/mL MSU suspension to the back of the right ankle joint at a dose of 0.2 mL/rat; • (2) Colchicine group: the colchicine group was administered once on the day of modeling, and 1 h after administration, each rat was injected with 40 mg/mL MSU suspension on the dorsal side of the right ankle joint at a dose of 0.2 mL/mouse; • (3)-(6) B4 groups: 1 h after the last administration, each rat was injected with 40 mg/mL MSU suspension on the dorsal side of the right ankle joint at 0.2 mL/mouse, and 3 h after modeling, each test group was further administrated once.
2.3 Measurement of joint swelling: before modeling and 2 h, 4 h, 6 h, 8 h, 12 h, 24 h after modeling, the volume of the right ankle joint was measured, and the swelling degree was calculated by “joint volume after modeling-joint volume before modeling”.

[2] = tested on: rats with acute gouty arthritis induced by MSU; experiment: Example 2: further investigation at reduced dose, sodium urate (MSU)-induced acute gouty arthritis in rats, joint swelling; assay type: in vivo, SD rats; set-up: key to Swelling degree 2 h after modelling / Swelling degree 4 h after modelling / Swelling degree 6 h after modelling: joint volume after modeling minus joint volume before modeling
Source text: Based on Example 1, the dosage of anemoside B4 was reduced, and the effect on alleviating the joint swelling of acute gouty arthritis caused by sodium urate in rats was further investigated. • 1. Experimental materials: same as item “1.” in example 1. • 2. Experimental method • 2.1 Preparation of sodium urate (MSU) crystals and suspension: same as item “2.1” in Example 1. • 2.2. Grouping, administration, and model establishment: • 2.2.1 Grouping: 50 rats were randomly divided into 5 groups according to their body weights, 10 rats for each group: • (1) model group; (2) colchicine group (0.15 mg/kg); (3) B4 subcutaneous injection group (2.5 mg/kg*2); (4) B4 intramuscular injection group (2.5 mg/kg*2); (5) B4 intravenous injection group (2.5 mg/kg*2). • 2.2.2 Administration: The model group was injected with the same volume of normal saline, and each test group (including B4 groups and colchicine group) was administered only on the day of model building. Among them, colchicine group was administered once, while each B4 group was successively administered two times with an interval of 4 h. • 2.2.3 Model establishment and measurement of joint swelling: the model was initially established 1 h after administrating in the drug groups, and the method was same as that in example 1. Before modeling and 2 h, 4 h, 6 h, 8 h, and 12 h after modeling, the volume of the right ankle joint was measured, and the swelling degree was calculated by “joint volume after modeling joint volume before modeling”. • 3.

[3] = B4 intramuscular high-dose group, 5 mg/kg * 2
[4] = B4 intramuscular low-dose group, 2.5 mg/kg * 2
[5] = B4 intravenous injection group, 5 mg/kg * 2
[6] = B4 subcutaneous injection group, 5 mg/kg * 2
[7] = B4 intramuscular injection group, 2.5mg/kg * twice
[8] = B4 intravenous injection group, 2.5mg/kg * twice
[9] = B4 subcutaneous injection group, 2.5 mg/kg * twice

SMILES: COc1cc2c(c(OC)c1OC)-c1ccc(OC)c(=O)cc1[C@@H](NC(C)=O)CC2 [Colchicine, colchicine, reference compound]
- Swelling degree 4 h after modelling ([1]; Colchicine group, 0.3 mg/kg): 0.13 ± 0.11^Δ
- Swelling degree 6 h after modelling ([1]; Colchicine group, 0.3 mg/kg): 0.19 ± 0.14
- Swelling degree 8 h after modelling ([1]; Colchicine group, 0.3 mg/kg): 0.25 ± 0.20
- Swelling degree 12 h after modelling ([1]; Colchicine group, 0.3 mg/kg): 0.35 ± 0.23
- Swelling degree 24 h after modelling ([1]; Colchicine group, 0.3 mg/kg): 0.33 ± 0.11
- Swelling degree 2 h after modelling ([1]; Colchicine group, 0.3 mg/kg, once on the day of modeling): 0.14 ± 0.08
- swelling degree of the joints compared with the model group ([1]; colchicine group, 4 h after modelling): significantly reduced
- Swelling degree 4 h after modelling ([2]; Colchicine group, 0.15 mg/kg): 0.082 ± 0.11
- Swelling degree 6 h after modelling ([2]; Colchicine group, 0.15 mg/kg): 0.056 ± 0.11^Δ
- Swelling degree 8 h after modelling ([2]; Colchicine group, 0.15 mg/kg): 0.135 ± 0.13^Δ
- Swelling degree 12 h after modelling ([2]; Colchicine group, 0.15 mg/kg): 0.128 ± 0.13^Δ
- Swelling degree 2 h after modelling ([2]; Colchicine group, 0.15 mg/kg, once on the day of model building): 0.155 ± 0.07
- swelling degree of the joint compared with the model group ([2]; colchicine group, 6-12 h after modelling): obviously reduced and significantly different

SMILES: C=C(C)C1CCC2(C(=O)O[C@@H]3O[C@H](CO[C@@H]4O[C@H](CO)[C@@H](O[C@@H]5O[C@@H](C)[C@H](O)[C@@H](O)[C@H]5O)[C@H](O)[C@H]4O)[C@@H](O)[C@H](O)[C@H]3O)CC[C@]3(C)[C@H](CC[C@@H]4[C@@]5(C)CC[C@H](OC6OC[C@H](O)[C@H](O)[C@H]6O[C@@H]6O[C@@H](C)[C@H](O)[C@@H](O)[C@H]6O)[C@@](C)(CO)[C@@H]5CC[C@]43C)[C@@H]12 (stereo partly shown) [B4, anemoside B4]
- Swelling degree 2 h after modelling [1, 3]: 0.15 ± 0.10
- Swelling degree 4 h after modelling [1, 3]: 0.15 ± 0.09^Δ
- Swelling degree 6 h after modelling [1, 3]: 0.19 ± 0.11
- Swelling degree 8 h after modelling [1, 3]: 0.28 ± 0.11
- Swelling degree 12 h after modelling [1, 3]: 0.33 ± 0.16
- Swelling degree 24 h after modelling [1, 3]: 0.35 ± 0.23
- swelling degree of the joints compared with the model group ([1]; B4 intramuscular injection group, 2-4 h after modelling): significantly reduced
- Swelling degree 2 h after modelling [1, 4]: 0.12 ± 0.07^Δ
- Swelling degree 4 h after modelling [1, 4]: 0.11 ± 0.11^Δ
- Swelling degree 6 h after modelling [1, 4]: 0.20 ± 0.11
- Swelling degree 8 h after modelling [1, 4]: 0.32 ± 0.18
- Swelling degree 12 h after modelling [1, 4]: 0.38 ± 0.23
- Swelling degree 24 h after modelling [1, 4]: 0.55 ± 0.35
- Swelling degree 4 h after modelling [1, 5]: 0.08 ± 0.18^Δ
- Swelling degree 6 h after modelling [1, 5]: 0.13 ± 0.14^Δ
- Swelling degree 8 h after modelling [1, 5]: 0.23 ± 0.21
- Swelling degree 12 h after modelling [1, 5]: 0.22 ± 0.19
- Swelling degree 24 h after modelling [1, 5]: 0.28 ± 0.21
- Swelling degree 2 h after modelling ([1]; B4 intravenous injection group, 5 mg/kg * 2, 3 days, right ankle joint volume after minus before modelling): 0.17 ± 0.14
- swelling degree of the joints compared with the model group ([1]; B4 intravenous injection group, 4-6 h after modelling): significantly reduced
- Swelling degree 2 h after modelling [1, 6]: 0.10 ± 0.08^Δ
- Swelling degree 4 h after modelling [1, 6]: 0.07 ± 0.08^ΔΔ
- Swelling degree 6 h after modelling [1, 6]: 0.13 ± 0.09^Δ
- Swelling degree 8 h after modelling [1, 6]: 0.21 ± 0.13
- Swelling degree 12 h after modelling [1, 6]: 0.27 ± 0.15
- Swelling degree 24 h after modelling [1, 6]: 0.28 ± 0.16
- swelling degree of the joints compared with the model group ([1]; B4 subcutaneous injection group, 2-6 h after modelling): significantly reduced
- effect on reducing the acute joint swelling caused by sodium urate (MSU) crystals, compared with colchicine ([1]; administration routes and dosages of Example 1): equivalent to that of colchicine
- joint swelling of acute gouty arthritis (conclusion) ([1]; subcutaneous, intramuscular and intravenous injection): significantly alleviate
- alleviating the joint swelling of acute gouty arthritis (conclusion) ([2]; B4 injection, Example 2): significant effect
- Swelling degree 2 h after modelling [2, 7]: 0.099 ± 0.08
- Swelling degree 4 h after modelling [2, 7]: 0.130 ± 0.07
- Swelling degree 6 h after modelling [2, 7]: 0.090 ± 0.07
- Swelling degree 8 h after modelling [2, 7]: 0.134 ± 0.10^Δ
- Swelling degree 12 h after modelling [2, 7]: 0.097 ± 0.17^Δ
- swelling degree of the joint compared with the model group ([2]; B4 intramuscular injection group, 8-12 h after modelling): obviously reduced and significantly different
- joint swelling degree, rank among groups ([2]; B4 intramuscular injection group, 12 h after modeling): smallest in all groups
- Swelling degree 2 h after modelling [2, 8]: 0.113 ± 0.09
- Swelling degree 4 h after modelling [2, 8]: 0.099 ± 0.10
- Swelling degree 6 h after modelling [2, 8]: 0.108 ± 0.18
- Swelling degree 8 h after modelling [2, 8]: 0.113 ± 0.24^Δ
- Swelling degree 12 h after modelling [2, 8]: 0.124 ± 0.27^Δ
- swelling degree of the joint compared with the model group ([2]; B4 intravenous injection group, 8-12 h after modelling): obviously reduced and significantly different
- Swelling degree 4 h after modelling [2, 9]: 0.008 ± 0.11
- Swelling degree 6 h after modelling [2, 9]: 0.040 ± 0.09^Δ
- Swelling degree 8 h after modelling [2, 9]: 0.103 ± 0.18^Δ
- Swelling degree 12 h after modelling [2, 9]: 0.103 ± 0.16^Δ
- Swelling degree 2 h after modelling ([2]; B4 subcutaneous injection group, 2.5 mg/kg * twice, day of modelling only): 0.067 ± 0.10
- joint swelling degree, rank among groups ([2]; B4 subcutaneous injection group, 2-8 h after modeling): smallest in all groups
- swelling degree of the joint compared with the model group ([2]; B4 subcutaneous injection group, 6-12 h after modelling): obviously reduced and significantly different
- effect on reducing the joint swelling of acute gouty arthritis caused by sodium urate, compared with colchicine ([2]; administration routes and dosages of Example 2): equivalent to that of colchicine
